This assay has as its system artificial thrombosis. Briefly: Fibrinolysis of artificial thrombosis (Chandler's method) with ultrasonic catheter. Format: biochemical, human. The settings on record: average of two tests; for time for achieving 20% fibrinolysis: FIG. 4, blood from one person. As for the experimental part:
An artificial thrombosis was formed by Chandler's method. A sample of blood (1 ml) collected from a healthy person was entered into a flexible tube (inside diameter 3 mm, length 265 mm) and calcium chloride was added. The tube was shaped like a loop and was rotated at 12 r.p.m. for 20 minutes to give an artificial thrombosis model.
A ceramic ultrasonic element (width 2 mm, length 5 mm, thickness 1 mm) was inserted into the tip of a catheter (diameter 2 mm), and an oscillating element was connected to an oscillator provided outside with a fine connector passed through the catheter. A fine tube for pouring a test solution was provided at an opening opposite to the opening of the catheter end.
The artificial thrombosis prepared as described above was added to a test tube together with blood, and the ultrasonic catheter was inserted into the test tube so that the end of the catheter was set close to the portion of the artificial thrombosis (at a distance of about 5 mm). To the test tube was added a mixture of urokinase and a booster prepared as in Example 1 at a rate of 1 ml per minute, wherein urokinase (concentration 1200 Ill/ml) and the booster were mixed immediately before pouring at a mixing ratio of 1:1 by mass. The mixture was refluxed while keeping the volume of the test solution at a constant level by removing excess volume of the solution by suction.
The mixture was exposed to the ultrasound at a frequency of 170 KHz to by a pulse method (exposure for 2 seconds followed by termination of exposure for 4 seconds) for 2 minutes. Total exposure time was 40 seconds). After the exposure, the ultrasonic catheter was removed from the test tube, and the mixture was incubated at 37° C. for between 5 and 120 minutes, washed with a physiological saline solution several times and dried overnight. Thereafter, the dried mixture was weighed. […]
The rate of fibrinolysis was calculated by the following equation: Fibrinolysis rate (%)=(A−B)/A×100, wherein • A is the weight of thrombosis in control; and • B is the weight of thrombosis treated. […]

Regarding urokinase, the “time for achieving 20% fibrinolysis” value (with exposure of ultrasound 170 KHz pulsed, 40 s total) came out at 30 min and the “time for achieving 20% fibrinolysis” value (without exposure of ultrasound, urokinase 1200 IU/ml) is “about 45 minutes”. Besides, the “treatment time at which 50% fibrinolysis was achieved” value (FIG. 5, with exposure of ultrasound, energy reduced by 15%, blood from another person) is 60 min.

Source of the values: patent US20070183976A1, “Composition for ultrasound therapy and pharmaceutical liquid composition containing the same” (IMARX THERAPEUTICS, INC., priority 2006, published 2007).
